In patent publication US10391196B2, “Prefabricated alginate-drug bandages” (President and Fellows of Harvard College, priority 2013, dated 2019):
Entries after “also recorded” stand apart in the source; their conditions may differ.

Tests used:
[1] = Release of model drugs from 4% (w/v) alginate pieces; type: physicochemical; settings: 4% (w/v) alginate pieces 8 mm diameter, 2 mm thick, cross-linked 15 minutes
Experimental: Drug release was recorded for 4% (w/v) alginate pieces 8 mm in diameter and 2 mm in thickness that were cross-linked for 15 minutes. […] (Sample size of study n=3 per time point).

[2] = Substance P release from alginate bandage sheets in PBS, measured by ELISA; type: physicochemical; settings: 2% (w/v) and 4% (w/v) bandaging sheets; 8 mm diameter, 2 mm thick sample in 2 mls PBS
Experimental: The release was performed by placing the bandage sample of 8 mm diameter and 2 mm thickness in 2 mls of PBS and moving it to a new solution at defined time intervals. The release was examined using a commercially available ELISA assay. […] The sheets incorporate either 32 μg or 64 μg of Substance P with a given processing loss (Sample size n=3 per time point). Small molecule compounds (less than 1000 daltons) are typically added to the composition in a volume of 250 μl for a dressing that is about 12 mm in diameter and 2 mm thick. Thus, substance P was added at 128 μg/ml at the low concentration and 256 μg/ml at the higher concentration. Actual clinical doses are the same or similar. Since small molecules may diffuse out of the dressing quickly, it is advantageous for small molecules to have an affinity for the alginate, e.g., since alginate is negatively charged, positively charged small molecule drugs elute at a clinically acceptable and beneficial rate (and consistent with standard practice for changing of wound dressings). For example, substance P is slightly positively charged and is therefore attracted to the alginate. Charge is less or not relevant for larger molecules, e.g., BSA. Generally, the dose is determined based on the therapeutic dose of the drug. For example, VEGF is administered to the dressing at about 50 μg/ml (3 μg in 60 μl of liquid).

| loss during wetting step [1] [%] | Compound | release profile from the alginate dressing material [1] | duration of sustained release of the peptide from the bandage [2] |
| --- | --- | --- | --- |
| – | O=C1c2c(O)ccc(O)c2C(=O)c2c(NCCNCCO)ccc(NCCNCCO)c21 [mitoxantrone, Mitoxantrone] | sustained release from the scaffold, which is still ongoing at the termination of the experiment | – |
| 24 | Cc1cc(-c2ccc(/N=N/c3c(S(=O)(=O)O)cc4cc(S(=O)(=O)O)cc(N)c4c3O)c(C)c2)ccc1/N=N/c1c(S(=O)(=O)O)cc2cc(S(=O)(=O)O)cc(N)c2c1O [trypan blue dye, Trypan blue] | lost very rapidly; also recorded: the majority within one day | – |
| – | Arg-Pro-Lys-Pro-Gln-Gln-Phe-Phe-Gly-Leu-Met [Substance P] | – | at least 3 days |
